Laboratory results from ChEMBL document CHEMBL1151457, “Colistin heteroresistance in acinetobacter and its association with previous colistin therapy” (Antimicrob Agents Chemother, 2008).
The source made the active and inactive calls. The calls are words filed in the database; no cut-off is given here.

Columns and labels:
Format in all cases: functional, organism-based
Acinetobacter [1] = assay: Antibacterial activity against heteroresistant Acinetobacter baumannii-calcoaceticus complex isolated from total cumulative patients preexposed to 325 to 900 mg of drug measured after two passages with 8 ug/ml of drug on sheep blood plates by broth microdilution method
Acinetobacter [2] = assay: Antimicrobial activity against heteroresistant-Acinetobacter baumannii-calcoaceticus complex isolated from patients after 20 to 24 hrs by broth microdilution method
Acinetobacter [3] = assay: Antibacterial activity against heteroresistant Acinetobacter baumannii-calcoaceticus complex isolated from total cumulative patients preexposed to 325 to 900 mg of drug at 4 ug/ml after 20 to 24 hrs by broth microdilution method
Acinetobacter [4] = assay: Antibacterial activity against heteroresistant Acinetobacter baumannii-calcoaceticus complex isolated from total cumulative patients preexposed to 325 to 900 mg of drug at 2 ug/ml after 20 to 24 hrs by broth microdilution method
Acinetobacter [5] = assay: Antibacterial activity against heteroresistant Acinetobacter baumannii-calcoaceticus complex isolated from total cumulative patients preexposed to 325 to 900 mg of drug assessed as colony forming unit at 8 ug/ml after 20 to 24 hrs by broth microdilution method
Acinetobacter [6] = assay: Antibacterial activity against Acinetobacter baumannii-calcoaceticus complex assessed as colony forming unit at 8 ug/ml after 20 to 24 hrs by broth microdilution method
Acinetobacter [7] = assay: Antimicrobial activity against susceptible-Acinetobacter baumannii-calcoaceticus complex isolated from patients after 20 to 24 hrs by broth microdilution method
Acinetobacter [8] = assay: Antibacterial activity against heteroresistant Acinetobacter baumannii-calcoaceticus complex isolated from total cumulative patients preexposed to 325 to 900 mg of drug after 20 to 24 hrs by broth microdilution method

Compound	MIC (Acinetobacter [1])	MIC (Acinetobacter [2])	Activity (Acinetobacter [3])	Activity (Acinetobacter [4])	Activity (Acinetobacter [5])	Activity (Acinetobacter [6])	MIC (Acinetobacter [7])	Activity (Acinetobacter [8])
COLISTIN	> 16 µg/mL	> 8 µg/mL	inactive	inactive	0.000211%	5.3e-05%	< 1 µg/mL	–
CC1(C)[C@H](C(=O)O)N2C(=O)C[C@H]2S1(=O)=O	–	–	–	–	–	–	–	Active
GENTAMICIN	–	–	–	–	–	–	–	Active
